Experimental data as given in the kinase profiling compilation of Christmann-Franck et al. (2016).

Legend:
Test in all cases: radiometric filter-binding kinase assay, Kinaseprofiler
PLK3 (human) = PLK3 (human) (UniProt Q9H4B4); settings: ATP 70 µM
PTK6 (human) = PTK6 (human) (UniProt Q13882); settings: ATP 15 µM
BTK (human) = BTK (human) (UniProt Q06187); settings: ATP 200 µM
STK4 (human) = STK4 (human) (UniProt Q13043); settings: ATP 90 µM
RPS6KA6 KD1 KD2 (human) = RPS6KA6 KD1 KD2 (human) (UniProt Q9UK32); settings: ATP 45 µM
[1] = target: CSNK2A1 CSNK2B CSNK2A2 (human) (UniProt P19784+P68400+P67870); settings: ATP 15 µM
MAPK12 (human) = MAPK12 (human) (UniProt P53778); settings: ATP 15 µM
NUAK1 (human) = NUAK1 (human) (UniProt O60285); settings: ATP 45 µM
FRK (human) = FRK (human) (UniProt P42685); settings: ATP 155 µM
CAMK1 (human) = CAMK1 (human) (UniProt Q14012); settings: ATP 200 µM
RIPK2 (human) = RIPK2 (human) (UniProt O43353); settings: ATP 120 µM
DYRK2 (human) = DYRK2 (human) (UniProt Q92630); settings: ATP 15 µM
IRAK1 (human) = IRAK1 (human) (UniProt P51617); settings: ATP 45 µM
SGK3 (human) = SGK3 (human) (UniProt Q96BR1); settings: ATP 155 µM
GSG2 (human) = GSG2 (human) (UniProt Q8TF76); settings: ATP 70 µM
CSK (human) = CSK (human) (UniProt P41240); settings: ATP 15 µM
CDK7 CCNH MNAT1 (human) = CDK7 CCNH MNAT1 (human) (UniProt P50613+P51948+P51946); settings: ATP 90 µM
RET (human) = RET (human) (UniProt P07949); settings: ATP 70 µM
SRPK3 (human) = SRPK3 (human) (UniProt Q9UPE1); settings: ATP 15 µM
PTK2B (human) = PTK2B (human) (UniProt Q14289); settings: ATP 90 µM
PTK2 (human) = PTK2 (human) (UniProt Q05397); settings: ATP 70 µM
TSSK2 (human) = TSSK2 (human) (UniProt Q96PF2); settings: ATP 15 µM
NEK11 (human) = NEK11 (human) (UniProt Q8NG66); settings: ATP 200 µM
ZAP70 (human) = ZAP70 (human) (UniProt P43403); settings: ATP 15 µM
MAPK13 (human) = MAPK13 (human) (UniProt O15264); settings: ATP 15 µM
NEK6 (human) = NEK6 (human) (UniProt Q9HC98); settings: ATP 45 µM
CSNK2A2 (human) = CSNK2A2 (human) (UniProt P19784); settings: ATP 10 µM
PRKCQ (human) = PRKCQ (human) (UniProt Q04759); settings: ATP 15 µM
MAPK1 (human) = MAPK1 (human) (UniProt P28482); settings: ATP 155 µM
EPHA7 (human) = EPHA7 (human) (UniProt Q15375); settings: ATP 90 µM
PIM3 (human) = PIM3 (human) (UniProt Q86V86); settings: ATP 155 µM
FLT3 (human) = FLT3 (human) (UniProt P36888); settings: ATP 200 µM
FLT3 (human), sequence (P36888 whole entry, looked up): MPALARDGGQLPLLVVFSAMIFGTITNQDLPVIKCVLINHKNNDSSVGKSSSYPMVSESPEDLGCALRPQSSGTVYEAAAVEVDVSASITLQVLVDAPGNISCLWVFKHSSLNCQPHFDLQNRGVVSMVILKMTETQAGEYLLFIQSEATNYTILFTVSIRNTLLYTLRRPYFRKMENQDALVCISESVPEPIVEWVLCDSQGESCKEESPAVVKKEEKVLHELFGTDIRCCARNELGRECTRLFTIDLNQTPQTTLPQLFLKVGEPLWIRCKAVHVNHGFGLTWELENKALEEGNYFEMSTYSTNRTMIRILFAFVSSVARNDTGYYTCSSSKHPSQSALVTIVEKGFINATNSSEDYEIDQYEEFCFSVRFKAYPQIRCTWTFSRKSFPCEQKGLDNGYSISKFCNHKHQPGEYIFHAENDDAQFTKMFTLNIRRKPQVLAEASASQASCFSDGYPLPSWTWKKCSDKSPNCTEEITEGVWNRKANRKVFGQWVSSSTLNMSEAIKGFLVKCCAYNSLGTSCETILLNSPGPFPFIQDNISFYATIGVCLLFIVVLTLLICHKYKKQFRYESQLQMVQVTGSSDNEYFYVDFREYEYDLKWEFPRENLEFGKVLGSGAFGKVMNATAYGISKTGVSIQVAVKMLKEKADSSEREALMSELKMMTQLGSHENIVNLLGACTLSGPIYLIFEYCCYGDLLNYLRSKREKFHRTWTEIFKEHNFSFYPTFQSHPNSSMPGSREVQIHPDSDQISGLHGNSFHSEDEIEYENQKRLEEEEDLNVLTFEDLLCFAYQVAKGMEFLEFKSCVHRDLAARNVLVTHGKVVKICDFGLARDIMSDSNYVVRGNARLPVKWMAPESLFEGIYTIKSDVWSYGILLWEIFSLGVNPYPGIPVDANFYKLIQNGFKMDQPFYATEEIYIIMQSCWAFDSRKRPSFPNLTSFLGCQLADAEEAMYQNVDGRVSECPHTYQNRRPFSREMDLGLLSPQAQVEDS

PLK3 (human), sequence (Q9H4B4 whole entry, looked up): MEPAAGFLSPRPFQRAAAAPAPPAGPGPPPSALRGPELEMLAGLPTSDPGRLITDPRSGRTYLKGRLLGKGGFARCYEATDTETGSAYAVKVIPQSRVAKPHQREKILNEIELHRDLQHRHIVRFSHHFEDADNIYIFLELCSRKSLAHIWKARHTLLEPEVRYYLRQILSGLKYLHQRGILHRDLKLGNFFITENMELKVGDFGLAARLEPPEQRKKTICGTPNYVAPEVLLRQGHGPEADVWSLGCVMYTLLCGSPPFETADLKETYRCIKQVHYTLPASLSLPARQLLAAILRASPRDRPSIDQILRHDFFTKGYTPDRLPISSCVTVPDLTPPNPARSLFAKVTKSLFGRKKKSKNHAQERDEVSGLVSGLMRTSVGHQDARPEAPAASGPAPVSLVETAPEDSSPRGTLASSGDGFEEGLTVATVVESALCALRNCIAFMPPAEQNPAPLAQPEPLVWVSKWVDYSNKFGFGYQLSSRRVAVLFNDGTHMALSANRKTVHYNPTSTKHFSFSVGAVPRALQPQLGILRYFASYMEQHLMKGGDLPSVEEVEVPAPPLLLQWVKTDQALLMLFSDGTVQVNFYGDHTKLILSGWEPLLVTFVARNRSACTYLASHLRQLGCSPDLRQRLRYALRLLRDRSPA
NEK11 (human), sequence (Q8NG66 whole entry, looked up): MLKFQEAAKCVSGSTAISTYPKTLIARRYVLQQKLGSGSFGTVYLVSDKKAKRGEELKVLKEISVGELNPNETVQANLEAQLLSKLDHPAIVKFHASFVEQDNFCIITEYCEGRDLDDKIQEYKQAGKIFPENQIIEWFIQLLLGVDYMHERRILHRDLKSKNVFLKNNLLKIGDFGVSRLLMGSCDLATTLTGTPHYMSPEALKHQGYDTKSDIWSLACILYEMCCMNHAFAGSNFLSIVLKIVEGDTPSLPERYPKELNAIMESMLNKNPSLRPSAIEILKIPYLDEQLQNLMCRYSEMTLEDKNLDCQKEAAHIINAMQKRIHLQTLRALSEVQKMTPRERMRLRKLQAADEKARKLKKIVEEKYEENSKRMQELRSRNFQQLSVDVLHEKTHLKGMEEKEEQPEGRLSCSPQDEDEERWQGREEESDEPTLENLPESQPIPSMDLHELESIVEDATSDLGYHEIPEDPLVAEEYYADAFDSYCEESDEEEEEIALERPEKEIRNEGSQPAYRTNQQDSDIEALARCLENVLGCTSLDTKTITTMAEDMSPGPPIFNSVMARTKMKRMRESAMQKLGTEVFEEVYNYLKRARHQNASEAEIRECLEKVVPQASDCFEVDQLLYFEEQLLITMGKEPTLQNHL
CAMK1 (human), sequence (Q14012 whole entry, looked up): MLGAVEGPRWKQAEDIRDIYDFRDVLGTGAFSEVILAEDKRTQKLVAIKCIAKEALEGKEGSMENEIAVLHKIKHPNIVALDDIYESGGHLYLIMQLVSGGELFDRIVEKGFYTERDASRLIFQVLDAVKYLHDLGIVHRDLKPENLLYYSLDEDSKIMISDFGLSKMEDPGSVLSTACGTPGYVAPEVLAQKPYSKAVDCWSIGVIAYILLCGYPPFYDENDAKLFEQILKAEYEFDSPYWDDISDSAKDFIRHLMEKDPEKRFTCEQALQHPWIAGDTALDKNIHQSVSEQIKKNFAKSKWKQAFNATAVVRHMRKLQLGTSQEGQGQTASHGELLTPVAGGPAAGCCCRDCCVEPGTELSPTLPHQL
MAPK12 (human), sequence (P53778 whole entry, looked up): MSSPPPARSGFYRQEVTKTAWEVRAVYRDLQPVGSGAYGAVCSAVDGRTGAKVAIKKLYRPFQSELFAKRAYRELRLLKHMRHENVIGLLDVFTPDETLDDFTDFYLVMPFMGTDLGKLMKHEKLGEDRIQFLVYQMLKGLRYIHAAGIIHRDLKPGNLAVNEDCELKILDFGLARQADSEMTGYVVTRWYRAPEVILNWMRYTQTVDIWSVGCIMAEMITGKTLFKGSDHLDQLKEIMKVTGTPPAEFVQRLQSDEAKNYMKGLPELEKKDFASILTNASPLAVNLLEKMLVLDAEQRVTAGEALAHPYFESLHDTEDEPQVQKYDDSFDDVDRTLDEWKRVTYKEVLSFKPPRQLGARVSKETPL
IRAK1 (human), sequence (P51617 whole entry, looked up): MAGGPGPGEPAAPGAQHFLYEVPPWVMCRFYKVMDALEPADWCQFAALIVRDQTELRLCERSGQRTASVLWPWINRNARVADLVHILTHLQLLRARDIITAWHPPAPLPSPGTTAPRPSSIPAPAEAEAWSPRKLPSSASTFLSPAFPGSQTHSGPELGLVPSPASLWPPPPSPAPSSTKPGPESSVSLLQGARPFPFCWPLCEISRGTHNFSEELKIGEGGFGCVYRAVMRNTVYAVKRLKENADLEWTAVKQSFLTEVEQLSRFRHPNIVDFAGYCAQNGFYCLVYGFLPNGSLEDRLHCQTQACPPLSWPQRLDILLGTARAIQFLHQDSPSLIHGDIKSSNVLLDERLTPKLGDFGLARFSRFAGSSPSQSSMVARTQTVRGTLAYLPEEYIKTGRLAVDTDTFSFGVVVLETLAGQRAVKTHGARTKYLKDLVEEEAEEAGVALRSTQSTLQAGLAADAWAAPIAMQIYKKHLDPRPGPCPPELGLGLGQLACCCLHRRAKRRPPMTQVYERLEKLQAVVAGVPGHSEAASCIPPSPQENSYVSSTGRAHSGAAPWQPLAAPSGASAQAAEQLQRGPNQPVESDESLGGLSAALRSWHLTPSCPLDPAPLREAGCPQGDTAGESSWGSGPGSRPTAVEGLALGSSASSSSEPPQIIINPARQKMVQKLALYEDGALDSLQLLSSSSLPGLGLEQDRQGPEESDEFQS
DYRK2 (human), sequence (Q92630 whole entry, looked up): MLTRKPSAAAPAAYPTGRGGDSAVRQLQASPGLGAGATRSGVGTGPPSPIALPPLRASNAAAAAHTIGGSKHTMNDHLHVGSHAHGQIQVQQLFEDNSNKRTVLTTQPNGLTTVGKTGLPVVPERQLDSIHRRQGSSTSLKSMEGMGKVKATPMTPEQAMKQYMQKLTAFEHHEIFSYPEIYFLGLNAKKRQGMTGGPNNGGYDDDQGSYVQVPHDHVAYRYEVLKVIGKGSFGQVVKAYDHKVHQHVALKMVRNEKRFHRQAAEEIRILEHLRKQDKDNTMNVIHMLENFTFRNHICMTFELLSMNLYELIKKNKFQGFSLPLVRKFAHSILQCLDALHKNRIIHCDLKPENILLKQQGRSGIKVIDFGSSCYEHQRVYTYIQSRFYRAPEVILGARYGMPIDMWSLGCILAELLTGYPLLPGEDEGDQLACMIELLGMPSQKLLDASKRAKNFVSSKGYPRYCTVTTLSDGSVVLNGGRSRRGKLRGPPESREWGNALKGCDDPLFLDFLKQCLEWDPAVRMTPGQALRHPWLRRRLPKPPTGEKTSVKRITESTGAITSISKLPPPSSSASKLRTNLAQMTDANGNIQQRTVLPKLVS
NEK6 (human), sequence (Q9HC98 whole entry, looked up): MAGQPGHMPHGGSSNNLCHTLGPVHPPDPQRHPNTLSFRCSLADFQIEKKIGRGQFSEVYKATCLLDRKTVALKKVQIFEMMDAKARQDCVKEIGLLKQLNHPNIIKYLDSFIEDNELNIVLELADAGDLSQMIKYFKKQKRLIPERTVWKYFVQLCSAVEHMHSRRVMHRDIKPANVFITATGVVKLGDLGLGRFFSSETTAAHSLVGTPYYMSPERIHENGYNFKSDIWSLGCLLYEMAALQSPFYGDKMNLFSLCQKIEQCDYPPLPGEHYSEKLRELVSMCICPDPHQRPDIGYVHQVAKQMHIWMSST

SMILES: O=C1c2ccccc2-c2n[nH]c3cccc1c23
- residual activity (PLK3 (human); compound 1.0 µM): 94%
- residual activity (PLK3 (human); compound 10.0 µM): 82%
- residual activity (PTK6 (human); compound 1.0 µM): 95%
- residual activity (PTK6 (human); compound 10.0 µM): 95%
- residual activity (BTK (human); compound 1.0 µM): 88%
- residual activity (BTK (human); compound 10.0 µM): 57%
- residual activity (STK4 (human); compound 1.0 µM): 52%
- residual activity (STK4 (human); compound 10.0 µM): 21%
- residual activity (RPS6KA6 KD1 KD2 (human); compound 1.0 µM): 43%
- residual activity (RPS6KA6 KD1 KD2 (human); compound 10.0 µM): 52%
- residual activity ([1]; compound 1.0 µM): 60%
- residual activity ([1]; compound 10.0 µM): 19%
- residual activity (MAPK12 (human); compound 1.0 µM): 82%
- residual activity (MAPK12 (human); compound 10.0 µM): 61%
- residual activity (NUAK1 (human); compound 1.0 µM): 28%
- residual activity (NUAK1 (human); compound 10.0 µM): 17%
- residual activity (FRK (human); compound 1.0 µM): 91%
- residual activity (FRK (human); compound 10.0 µM): 58%
- residual activity (CAMK1 (human); compound 1.0 µM): 77%
- residual activity (CAMK1 (human); compound 10.0 µM): 32%
- residual activity (RIPK2 (human); compound 1.0 µM): 70%
- residual activity (RIPK2 (human); compound 10.0 µM): 52%
- residual activity (DYRK2 (human); compound 1.0 µM): 4%
- residual activity (DYRK2 (human); compound 10.0 µM): -5%
- residual activity (IRAK1 (human); compound 1.0 µM): 69%
- residual activity (IRAK1 (human); compound 10.0 µM): 42%
- residual activity (SGK3 (human); compound 1.0 µM): 85%
- residual activity (SGK3 (human); compound 10.0 µM): 58%
- residual activity (GSG2 (human); compound 1.0 µM): 10%
- residual activity (GSG2 (human); compound 10.0 µM): -1%
- residual activity (CSK (human); compound 1.0 µM): 105%
- residual activity (CSK (human); compound 10.0 µM): 93%
- residual activity (CDK7 CCNH MNAT1 (human); compound 1.0 µM): 75%
- residual activity (CDK7 CCNH MNAT1 (human); compound 10.0 µM): 24%
- residual activity (RET (human); compound 1.0 µM): 43%
- residual activity (RET (human); compound 10.0 µM): 11%
- residual activity (SRPK3 (human); compound 1.0 µM): 90%
- residual activity (SRPK3 (human); compound 10.0 µM): 82%
- residual activity (PTK2B (human); compound 1.0 µM): 68%
- residual activity (PTK2B (human); compound 10.0 µM): 23%
- residual activity (PTK2 (human); compound 1.0 µM): 52%
- residual activity (PTK2 (human); compound 10.0 µM): 9%
- residual activity (TSSK2 (human); compound 1.0 µM): 92%
- residual activity (TSSK2 (human); compound 10.0 µM): 86%
- residual activity (NEK11 (human); compound 1.0 µM): 50%
- residual activity (NEK11 (human); compound 10.0 µM): 47%
- residual activity (ZAP70 (human); compound 1.0 µM): 94%
- residual activity (ZAP70 (human); compound 10.0 µM): 98%
- residual activity (MAPK13 (human); compound 1.0 µM): 96%
- residual activity (MAPK13 (human); compound 10.0 µM): 73%
- residual activity (NEK6 (human); compound 1.0 µM): 107%
- residual activity (NEK6 (human); compound 10.0 µM): 101%
- residual activity (CSNK2A2 (human); compound 1.0 µM): 59%
- residual activity (CSNK2A2 (human); compound 10.0 µM): 18%
- residual activity (PRKCQ (human); compound 1.0 µM): 90%
- residual activity (PRKCQ (human); compound 10.0 µM): 76%
- residual activity (MAPK1 (human); compound 1.0 µM): 88%
- residual activity (MAPK1 (human); compound 10.0 µM): 55%
- residual activity (EPHA7 (human); compound 1.0 µM): 80%
- residual activity (EPHA7 (human); compound 10.0 µM): 41%
- residual activity (PIM3 (human); compound 1.0 µM): 75%
- residual activity (PIM3 (human); compound 10.0 µM): 59%
- residual activity (FLT3 (human); compound 1.0 µM): 6%
- residual activity (FLT3 (human); compound 10.0 µM): 1%
